Laboratory results from PubChem BioAssay AID179 (DTP/NCI, 2004).
Active and inactive are the calls of the source.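 How the source made its calls: active means compounds giving half or more protection of infected cells from virus-caused growth loss, again on retest; inactive means the rest.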

Tested on: CEM cells HIV-1 protection, formazan growth assay
Test: NCI AIDS Antiviral Assay
Conditions: for IC50: measured here: growth of uninfected CEM cells
How it was run: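 Protection of CEM cells against HIV-1 was scored from cell growth (soluble formazan) across five concentrations, with parallel uninfected cells. Lack of protection may reflect toxicity.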

COc1ccc(Oc2nc3c(N)cc(C(F)(F)F)cc3nc2-c2ccccc2)cc1
EC50: > 100 µM
IC50: 34.7 µM

c1ccc2c(c1)N[C@@H]1c3[nH]c4ccccc4c3CC[C@H]21
EC50: > 200 µM
IC50: 24.5 µM

COc1cc(N=O)c(N=O)cc1[N+](=O)[O-]
EC50: > 170 µM
IC50: 15.1 µM

CC(=O)O[C@H]1CC[C@@]2(C)C(=CC[C@@H]3C2CC[C@@]2(C)C3CC[C@@H]2c2nc(-c3ccccc3)cs2)C1 (stereo partly specified)
EC50: > 52.5 µM
IC50: > 52.5 µM

COC(=O)N/N=C(/CCCC(=O)Nc1cccc([N+](=O)[O-])c1)C(C#N)c1ccc(CC#N)cc1 (stereo unspecified)
outcome: inactive

O=C1c2c(O)cccc2C(C(=O)CCCCCC(=O)C2c3cccc(O)c3C(=O)c3c(O)cccc32)c2cccc(O)c21
EC50: > 6.61 µM
IC50: 6.17 µM

COc1ccc(C2NC(=S)N3C(c4ccc(OC)c(OC)c4)NC(=S)N23)cc1OC (stereo unspecified)
EC50: > 200 µM
IC50: > 200 µM

N#CI1OC(=O)c2ccccc21
EC50: > 200 µM
IC50: > 100 µM

CCN1C[C@]2(CO)CCC(O)C34[C@@H]5C[C@@H]6C(OC(C)=O)[C@@H]5[C@](OC(C)=O)(C[C@@H]6OC)[C@@H](C(OC)[C@@H]32)[C@H]14 (stereo partly specified)
outcome: inactive

O[C@H]1[C@H]2c3cc4c(cc3CN3CCC(C[C@@H]1O)[C@H]23)OCO4 (stereo partly specified)
outcome: inactive

S=C1SCC2CCCN12 (stereo unspecified)
outcome: inactive

CN(C)CC(C)(C)C(/C=C/c1ccccc1)=N\Nc1ccccc1
outcome: inactive

c1ccc2c(c1)Cc1cn3ncnc3nc1-2
EC50: > 200 µM
IC50: > 200 µM

O=C1CNCCNCC(=O)Nc2ccccc2-c2ccccc2N1
outcome: inactive

COc1ccc(C(O)C2c3c(cc4c(c3OC)OCO4)CCN2C)c(CO)c1OC (stereo unspecified)
outcome: inactive

CC(C)NC(=O)OCc1c(COC(=O)NC(C)C)n(C)c2c1ccc1ccccc12
EC50: > 174 µM
IC50: 0.0813 µM

COc1ccc2c(c1)CC[C@@H]1[C@@H]2CC[C@]2(C)/C(=N/OCCN3CCCCC3)CC[C@@H]12
EC50: > 20 µM
IC50: 3.16 µM

COC(=O)C1=C(C(=O)OC)C23CC4CCC2(C(=O)C1O3)C4(C)C (stereo unspecified)
EC50: > 251 µM
IC50: 16.6 µM

Nc1ccc2c(O)c(N=Nc3ccc(N=Nc4ccc(S(=O)(=O)O)cc4)cc3)c(S(=O)(=O)O)cc2c1N=Nc1ccc(N=Nc2ccc(S(=O)(=O)O)cc2)cc1
outcome: active

O=[N+]([O-])[O-].O=[N+]([O-])[O-].[Au].[Au].c1ccc([P-]c2ccccc2)cc1.c1ccc([P-]c2ccccc2)cc1
EC50: > 4.27 µM
IC50: > 4.27 µM

COc1cccc2c1CCc1ccccc1CC2=O
EC50: > 53.7 µM
IC50: > 53.7 µM

CNc1ccc(C=C2c3ccccc3-c3ccccc32)cc1
EC50: > 13.2 µM
IC50: 4.79 µM

CC1=C(C#N)C(N)=C2C(C)=C(C#N)C(N)=C12
outcome: inactive

N#C/C(=C\c1ccc(O)c(O)c1)C(=O)NCc1cccc(CNC(=O)/C(C#N)=C/c2ccc(O)c(O)c2)c1
EC50: > 200 µM
IC50: 10.2 µM

S=c1[nH]c(=S)c2nnn(-c3ccccc3)c2[nH]1
EC50: > 138 µM
IC50: 126 µM

CCOC(=O)[C@@H]1ON2O[C@@H](OC3CCCCC3c3ccccc3)C[C@H]3OC(=O)[C@@H]1C32 (stereo partly specified)
EC50: > 200 µM
IC50: > 200 µM

CC1(C)CCc2cc3c(cc2O1)OC(C)(C)C1c2c(ccc4c2CCC(C)(C)O4)OC31 (stereo unspecified)
outcome: inactive

CNC(=O)N(Cc1ccccc1)C[C@@H]1CCCN1C(C)=O
EC50: > 200 µM
IC50: > 200 µM

C=C(C)C1CCC2(CO)C(O)CC3(C)C(CCC4C5(C)CCC(O)C(C)(C)C5CCC43C)C12 (stereo unspecified)
EC50: > 100 µM
IC50: 75.9 µM

COc1cc(C2c3c(ccc4ccccc34)C(=O)C3CCC(=O)N32)cc(OC)c1O (stereo unspecified)
EC50: > 25.1 µM
IC50: 1.29 µM

COc1cc(O)c(C(=O)/C=C/c2ccc(Cl)c(Cl)c2)c(OC)c1
EC50: > 200 µM
IC50: 3.02 µM

COC1=NCc2ccccc2-c2ccccc21
EC50: > 224 µM
IC50: 123 µM

CCOC(=O)C1CC2OC2CC1C(=O)OCC (stereo unspecified)
EC50: > 200 µM
IC50: > 200 µM

CCC(c1ccc(OC(C)=O)c(CC(Br)CBr)c1)C(CC)c1ccc(OC(C)=O)c(CC(Br)CBr)c1 (stereo unspecified)
EC50: > 100 µM
IC50: 16.2 µM

Cc1nc(C)c(N2CCN(C#N)CC2)c(=O)[nH]1
EC50: > 200 µM
IC50: > 200 µM

O=C(C(/C=N\C(=S)Nc1ccccc1Cl)=C(/O)c1ccccc1)c1ccccc1
EC50: > 200 µM
IC50: 12 µM

CCOC(=O)C(/C=N\C(=S)Nc1ccc(Cl)c(Cl)c1)=C(/O)c1ccccc1
EC50: > 200 µM
IC50: 24 µM

Cc1ccc(-n2c(Cn3nnc(-c4cccnc4)n3)nn(C3OC(COC(=O)c4ccccc4)C(OC(=O)c4ccccc4)C3OC(=O)c3ccccc3)c2=S)cc1C (stereo unspecified)
EC50: > 100 µM
IC50: > 100 µM

COc1ccc(COC(=O)NNC(=O)C2CSC(c3ccccc3)N2C(C)=O)cc1 (stereo unspecified)
EC50: > 200 µM
IC50: 174 µM

Cc1ccccc1-n1c(=O)c2ncn(C3CCCO3)c2n(-c2ccccc2C)c1=S (stereo unspecified)
EC50: > 200 µM
IC50: > 200 µM

O=C(Nc1nccs1)Nc1cc(C(F)(F)F)ccc1Cl
EC50: > 200 µM
IC50: > 200 µM

Cc1cc(C)c2c(n1)sc1c(=O)n(N)c(C)nc12
outcome: inactive

C=CCCCn1ccc2ccccc21
outcome: inactive

O=C(NP(=O)(N1CC1)N1CC1)OCc1ccccc1
EC50: > 200 µM
IC50: > 200 µM

CCCc1cc(=O)oc2c3c(cc(OC(C)COC)c12)O[C@H](C)[C@@H](C)[C@@H]3O (stereo partly specified)
EC50: 4.68 µM
IC50: 29.5 µM

CC1(Br)C(=O)NC(=O)N(C2C=CC(CO)O2)C1O (stereo unspecified)
EC50: > 200 µM
IC50: > 200 µM

O=C(N[C@H]1c2ccsc2/C(=N/O)[C@H]1O)C(F)(F)F
EC50: > 200 µM
IC50: > 200 µM

Cc1cn(CC2OC(CO)C(CO)O2)c(=O)[nH]c1=O (stereo unspecified)
EC50: > 457 µM
IC50: > 457 µM

CCC1(c2ccccc2)OCC(=O)NC1=O (stereo unspecified)
EC50: > 200 µM
IC50: > 200 µM

Cc1ccc(Oc2ccccc2N)cc1
outcome: inactive

Oc1ccc(-c2nc(-c3ccc(F)cc3)c(-c3ccc4ccccc4n3)[nH]2)cc1
EC50: > 200 µM
IC50: 21.4 µM

COC(=O)C1=C(CS(=O)c2ccccc2[N+](=O)[O-])ON(C)C1c1ccccc1 (stereo unspecified)
outcome: inactive

O=C1CCCC(=O)N2c3ccc(cc3)CSCCSCc3ccc(cc3)N12
outcome: inactive

c1ccc(CNCCCCNCCCNCc2ccccc2)cc1
EC50: > 200 µM
IC50: 13.8 µM

O=C(O)c1cc(-c2ccccc2O)nc2ccccc12
EC50: > 355 µM
IC50: 191 µM

C=C(C)c1nc(Oc2ccccc2)nc(Oc2ccccc2)n1
EC50: > 200 µM
IC50: 3.55 µM

Cc1ccc(-c2cc(=O)c3cc(C)c(C)c(C(=O)O)c3o2)cc1[N+](=O)[O-]
outcome: inactive

O=C1N[C@H]2c3c(Cl)sc(Cl)c3[C@@H](O)[C@H]2O1
EC50: > 200 µM
IC50: > 200 µM

CCOC1NC(=O)NC(=O)C1(C)Cl (stereo unspecified)
EC50: > 200 µM
IC50: > 200 µM

Cc1cc2cc3c(=O)[nH]c(=O)cc-3n(CC(O)C(O)C(O)CO)c2cc1C (stereo unspecified)
EC50: > 200 µM
IC50: > 200 µM

Cc1ccc(NC(c2ccccc2)P(=O)(c2ccccc2)c2ccccc2)cc1 (stereo unspecified)
EC50: > 200 µM
IC50: > 200 µM

COC(=O)[C@H](Cc1ccccc1)NC(=O)N(CCNCCNC(=O)OC(C)(C)C)c1ccccc1
EC50: > 200 µM
IC50: > 100 µM

O/N=C1/COC(C(F)(F)F)(C(F)(F)F)C1
EC50: > 200 µM
IC50: > 200 µM

Cc1ccc(C2=C/C(=C/c3ccc(N(CCC#N)CCC#N)cc3)C(=O)O2)cc1C
EC50: > 13.2 µM
IC50: > 13.2 µM

Cc1onc(-c2c(Cl)cccc2Cl)c1C(=O)SC1=NC(C)N2C(SC(=O)c3c(-c4c(Cl)cccc4Cl)noc3C)=NC(C)N12 (stereo unspecified)
EC50: > 19.1 µM
IC50: 18.2 µM

C=C(C)[C@@H]1CC[C@@]2(C)[C@H]1[C@H]1CCC3[C@@]4(C)CC[C@H](O)C(C)(C)[C@@H]4CC[C@@]3(C)[C@]1(C)C[C@@H]2O (stereo partly specified)
EC50: > 100 µM
IC50: 66.1 µM

O=C1c2cccc3cccc(c23)C(=O)N1CCCN(CCO)CCO
EC50: > 200 µM
IC50: 12.3 µM

O=C(O)/C(Cl)=C(/Cl)C(=O)Nc1cccc(Cl)c1
outcome: inactive

NNC(=O)N/N=C1\C(=O)N(c2nccs2)C(=O)C(=O)C1c1nc2ccccc2s1 (stereo unspecified)
EC50: > 2.45 µM
IC50: > 2.45 µM

O=[N+]([O-])c1ccc(COc2cccc3cccnc23)cc1
EC50: > 200 µM
IC50: 2.14 µM

COc1cc(COC(=O)N[C@H](C(=O)O)C(C)(C)C)c([N+](=O)[O-])cc1OC
EC50: > 676 µM
IC50: > 676 µM

O=S(O)CCCCSSCC(O)CO (stereo unspecified)
EC50: > 200 µM
IC50: 2.63 µM

O=C1CCCC1CN1CCCC1 (stereo unspecified)
outcome: inactive

CCC1(c2ccccc2)Sc2ccccc2-n2cccc2C1=O (stereo unspecified)
EC50: 18.2 µM
IC50: 155 µM

CC1CCC(C(C)C)C(O[C@@H]2OC(=O)C[C@@H]2Sc2ccccc2)C1 (stereo partly specified)
outcome: inactive

O=C1CCC2C(O)c3cc4c(cc3C(c3ccc5c(c3)OCO5)N12)OCO4 (stereo unspecified)
EC50: > 200 µM
IC50: > 200 µM

CCOC(=O)Nc1ccc2c(c1)/C(=N\NC(N)=S)c1ccccc1-2
EC50: > 200 µM
IC50: 3.39 µM

CCOP(=O)(OCC)/C(=C/NC(=S)c1ccncc1)C(=O)OC
EC50: 126 µM
IC50: 186 µM

CS(=O)(=O)c1ccc(-c2cc(-c3ccc(S(C)(=O)=O)cc3)[n+](-c3cc(-c4ccc(S(C)(=O)=O)cc4)c([O-])c(-c4ccc(S(C)(=O)=O)cc4)c3)c(-c3ccc(S(C)(=O)=O)cc3)c2)cc1
EC50: > 7.59 µM
IC50: > 7.59 µM

O=C(O)CCC(NC(=O)c1ccc(Oc2nc3ccccc3nc2C(=O)O)cc1)C(=O)O (stereo unspecified)
EC50: > 200 µM
IC50: > 200 µM

CCN(CC)CCNc1ccc2ncn3c4c(OC)ccc(=O)c4c(O)c1c23
EC50: > 50.1 µM
IC50: 0.0219 µM

Nc1ccc[nH]c1=O
EC50: > 234 µM
IC50: > 234 µM

CCCCOC(=O)c1cc(C(=CCC[C@H]2CC[C@@]3(C)[C@@H](CC[C@@H]4[C@@H]3CC[C@]3(C)[C@@H](C(C)CCCC(C)C)CC[C@@H]43)C2)c2cc(Cl)c(O)c(C(=O)OCCCC)c2)cc(Cl)c1O (stereo partly specified)
EC50: > 100 µM
IC50: > 100 µM

O=NC1(c2ccccc2)CCCCC1[N+](=O)[O-] (stereo unspecified)
EC50: > 200 µM
IC50: > 200 µM

O=C1CC2SC(COCc3ccccc3)(CCN2Cc2ccccc2)C1 (stereo unspecified)
outcome: inactive
IC50: 41.7 µM
